In US20060110401A1, “Mixture of peptides from c and ns3 proteins of the hepatitis c virus and applications thereof” (priority 2002, published 2006):
Like-named read-outs stand apart in the source and are kept apart here. Marks after values point to notes of the source that are not given here. Residues, ends and D or L forms follow the SMILES beside them.

Legend:
DR1 = experiment: DR1
HLA-DR11 (DRB1*1101) = HLA-DR11 (DRB1*1101) (Homo sapiens, UniProt P01903+P01911, A100R/A169T/A87E/I96F/K41T/L162R/M171V/P40S/Q125H/Q178H/Q39Y/Q99D/R42S/S66Y/T262R/V115G/W38E); experiment: biochemical; type: binding; details: read-out: binds with good affinity to DR11
HLA-DR1 (DRB1*0101) = target: T1, HLA-DR1 (DRB1*0101) (Homo sapiens, UniProt P01903+P01911, A100R/D57E/F55L/F60I/F76Y/I96L/L162R/M171V/P40L/Q125E/R42F/V115G/Y59C); experiment: biochemical; type: binding; details: for IC50: DRB1*0101
T1 construct: endogenous in cells; host or cells: homozygous EBV-transformed human B lymphocyte lines; immunopurified with antibody L243

HLA-DR15 (DRB1*1501) = target: T2, HLA-DR15 (DRB1*1501) (Homo sapiens, UniProt P01903+P01911); experiment: biochemical; type: binding; details: DRB1*1501; read-out: binds with good affinity to DR15
T2 construct: endogenous in cells; host or cells: homozygous EBV-transformed human B lymphocyte lines; immunopurified with antibody L243

HLA-DRB5 (DRB5*0101) = target: T3, HLA-DRB5 (DRB5*0101) (Homo sapiens, UniProt P01903+Q30154); experiment: biochemical; type: binding; details: read-out: binds with good affinity to DRB5
T3 construct: endogenous in cells; host or cells: homozygous EBV-transformed human B lymphocyte lines; immunopurified with antibody L243

DRB3 = experiment: DRB3
HLA-DR7 (DRB1*0701) = HLA-DR7 (DRB1*0701) (Homo sapiens, UniProt P01903+P01911, A100R/A102G/A103Q/D57E/D86V/E43K/F76Y/K127E/L162R/M171V/P40G/Q125H/Q99D/R33Q/R42Y/R54Q/S133A/S66F/T210M/V115G/Y107V/Y59L/Y89S); experiment: biochemical; type: binding; details: read-out: binds with good affinity to DR7
DRB5 = experiment: DRB5
DRB4 = experiment: DRB4
Text: Table printed on a drawing sheet, Figure 2
Where the first naming reader finds the target: head: DRB4

DP402 = experiment: DP402
DR15 = experiment: DR15
HLA-DRB4 (DRB4*0101) = target: T4, HLA-DRB4 (DRB4*0101) (Homo sapiens, UniProt P01903+P13762, G164S); experiment: biochemical; type: binding
T4 construct: endogenous in cells; host or cells: homozygous EBV-transformed human B lymphocyte lines; immunopurified with antibody L243

DR4 = experiment: DR4
DP401 = experiment: DP401
[1] = tested on: T lymphocytes derived from PBMCs from patients chronically infected with HCV; type: cell-based, human
[2] = read-out: binds with good affinity to DR1
[3] = competition with biotinylated tracer HA 306-318, read-out: IC50, binding to HLA-DR1
[4] = patient 067, supernatant 48 h, —: not detected
[5] = patient 078, supernatant 48 h, —: not detected
[6] = patient 093, supernatant 48 h, —: not detected
[7] = patient 659, supernatant 48 h, —: not detected
[8] = patient 815, supernatant 48 h, —: not detected
[9] = patient 630, supernatant 48 h, —: not detected
[10] = patient 862, supernatant 48 h, —: not detected

Sequence of HLA-DR11 (DRB1*1101) (P01903 26-254 limits assumed, other chains not shown): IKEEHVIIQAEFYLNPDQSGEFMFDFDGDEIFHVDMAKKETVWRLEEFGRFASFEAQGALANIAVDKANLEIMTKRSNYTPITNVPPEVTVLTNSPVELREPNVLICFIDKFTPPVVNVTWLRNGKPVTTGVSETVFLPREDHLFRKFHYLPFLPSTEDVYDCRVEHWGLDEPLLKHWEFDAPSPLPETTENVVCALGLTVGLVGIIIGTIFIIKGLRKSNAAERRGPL

## CC[C@H](C)[C@H](NC(=O)[C@H](Cc1ccc(O)cc1)NC(=O)CNC(=O)[C@H](CCSC)NC(=O)[C@H](CC(C)C)NC(=O)[C@H](CC(=O)O)NC(=O)[C@H](C)NC(=O)[C@H](Cc1ccccc1)NC(=O)CNC(=O)[C@H](C)NC(=O)[C@@H](N)[C@@H](C)O)C(=O)N1CCC[C@H]1C(=O)N[C@@H](CC(C)C)C(=O)N[C@H](C(=O)NCC(=O)N[C@@H](C)C(=O)N1CCC[C@H]1C(=O)N[C@@H](CC(C)C)C(=O)NCC(=O)NCC(=O)N[C@@H](C)C(=O)N[C@@H](C)C(=O)N[C@@H](CCCNC(=N)N)C(=O)O)C(C)C [5C 127-149] (H-TAGFADLMGYIPLVGAPLGGAAR-OH; N-terminus and C-terminus assumed)
DR1
  IC50: 2 nM
HLA-DR11 (DRB1*1101)
  IC50: < 1000 nM
HLA-DR1 (DRB1*0101); [2]
  IC50: < 1000 nM
HLA-DR15 (DRB1*1501)
  IC50: < 1000 nM
HLA-DRB5 (DRB5*0101)
  IC50: < 1000 nM
DRB3
  IC50: > 100000 nM
HLA-DR7 (DRB1*0701)
  IC50: < 1000 nM
DRB5
  IC50: 3 nM

## CC[C@H](C)[C@H](NC(=O)[C@@H](NC(=O)[C@H](CCCNC(=N)N)NC(=O)[C@@H](NC(=O)CNC(=O)[C@H](C)NC(=O)CNC(=O)[C@H](Cc1c[nH]cn1)NC(=O)[C@H](Cc1ccc(O)cc1)NC(=O)[C@@H](NC(=O)[C@@H](NC(=O)[C@H](Cc1c[nH]c2ccccc12)NC(=O)[C@H](C)NC(=O)[C@@H](NC(=O)CN)C(C)C)[C@@H](C)O)C(C)C)[C@@H](C)O)[C@@H](C)O)C(=O)N[C@@H](C)C(=O)N[C@@H](CO)C(=O)N1CCC[C@H]1C(=O)O [11N 1076-1093] (H-GVAWTVYHGAGTRTIASP-OH; N-terminus and C-terminus assumed)
HLA-DR11 (DRB1*1101)
  IC50: < 1000 nM
DRB4
  IC50: 60000 nM
HLA-DR1 (DRB1*0101); [2]
  IC50: < 1000 nM
HLA-DR15 (DRB1*1501)
  IC50: < 1000 nM
HLA-DRB5 (DRB5*0101)
  IC50: < 1000 nM
DRB3
  IC50: 6000 nM
HLA-DR7 (DRB1*0701)
  IC50: < 1000 nM
DRB5
  IC50: 100 nM

## CC[C@H](C)[C@H](NC(=O)[C@@H](NC(=O)[C@@H]1CCCN1C(=O)CNC(=O)[C@@H](N)CCCCN)C(C)C)C(=O)N[C@@H](CCC(N)=O)C(=O)N[C@@H](CCSC)C(=O)N[C@@H](Cc1ccc(O)cc1)C(=O)N[C@H](C(=O)N[C@@H](CC(N)=O)C(=O)N[C@H](C(=O)N[C@@H](CC(=O)O)C(=O)N[C@@H](CCC(N)=O)C(=O)N[C@@H](CC(=O)O)C(=O)N[C@@H](CC(C)C)C(=O)N[C@H](C(=O)NCC(=O)N[C@@H](Cc1c[nH]c2ccccc12)C(=O)N1CCC[C@H]1C(=O)N[C@@H](C)C(=O)N1CCC[C@H]1C(=O)N[C@@H](CCC(N)=O)C(=O)NCC(=O)N[C@@H](CO)C(=O)N[C@@H](CCCNC(=N)N)C(=O)N[C@@H](CO)C(=O)O)C(C)C)C(C)C)[C@@H](C)O [12N 1094-1119] (H-KGPVIQMYTNVDQDLVGWPAPQGSRS-OH; N-terminus and C-terminus assumed)
DR1
  IC50: > 10000 nM
DP402
  IC50: 3000 nM
HLA-DR1 (DRB1*0101); [3]
  IC50: > 10000 nM
HLA-DR1 (DRB1*0101); legend of FIG. 4
  affinity for HLA-DR1 (in words): low affinity
DRB3
  IC50: > 10000 nM
DR15
  IC50: 48 nM

## CC[C@H](C)[C@H](NC(=O)[C@@H]1CCCN1C(=O)[C@H](CCCNC(=N)N)NC(=O)[C@@H]1CCCN1C(=O)[C@H](CO)NC(=O)[C@H](CC(C)C)NC(=O)[C@H](CC(C)C)NC(=O)[C@H](CO)NC(=O)CNC(=O)[C@@H](N)CCCNC(=N)N)C(=O)N[C@@H](CO)C(=O)N[C@@H](Cc1ccc(O)cc1)C(=O)N[C@@H](CC(C)C)C(=O)N[C@@H](CCCCN)C(=O)NCC(=O)N[C@@H](CO)C(=O)N[C@@H](CO)C(=O)NCC(=O)NCC(=O)N1CCC[C@H]1C(=O)N[C@@H](CC(C)C)C(=O)N[C@@H](CC(C)C)C(=O)N[C@@H](C)C(=O)N1CCC[C@H]1C(=O)O [14N 1149-1172] (H-RGSLLSPRPISYLKGSSGGPLLAP-OH; N-terminus and C-terminus assumed)
DR1
  IC50: 8 nM
HLA-DRB4 (DRB4*0101); read-out: binds with good affinity to DRB4
  IC50: < 1000 nM
DP402
  IC50: > 100000 nM
DRB4
  IC50: 100 nM
HLA-DR1 (DRB1*0101); [2]
  IC50: < 1000 nM
DR4
  IC50: 9000 nM
HLA-DR15 (DRB1*1501)
  IC50: < 1000 nM
HLA-DRB5 (DRB5*0101)
  IC50: < 1000 nM
HLA-DR7 (DRB1*0701)
  IC50: < 1000 nM

## CC[C@H](C)[C@H](NC(=O)[C@H](Cc1ccccc1)NC(=O)[C@H](CC(=O)O)NC(=O)[C@@H](NC(=O)[C@H](C)NC(=O)[C@H](CCCCN)NC(=O)[C@H](C)N)C(C)C)C(=O)N1CCC[C@H]1C(=O)N[C@H](C(=O)N[C@@H](CCC(=O)O)C(=O)N[C@@H](CC(N)=O)C(=O)N[C@@H](CC(C)C)C(=O)N[C@@H](CCC(=O)O)C(=O)N[C@H](C(=O)N[C@H](C(=O)N[C@@H](CCSC)C(=O)N[C@@H](CCCNC(=N)N)C(=O)N[C@@H](CO)C(=O)N1CCC[C@H]1C(=O)N[C@H](C(=O)N[C@@H](Cc1ccccc1)C(=O)N[C@H](C(=O)N[C@@H](CC(=O)O)C(=O)O)[C@@H](C)O)C(C)C)[C@@H](C)O)[C@@H](C)O)C(C)C [16N 1190-1212]
DR1
  IC50: 600 nM
DP401
  IC50: 4110 nM
[1]; [4]
  IL2: — 85 pg/ml
[1]; [5]
  IL2: — 17 pg/ml
[1]; [6]
  IL2: 5 pg/mL
[1]; [7]
  IL2: 18 pg/mL
[1]; [8]
  IL2: 72 pg/mL
  IL10: 123 pg/mL
DP402
  IC50: 1440 nM
DR15
  IC50: 700 nM

## CC[C@H](C)[C@H](NC(=O)CNC(=O)[C@H](CC(C)C)NC(=O)[C@H](C)NC(=O)[C@@H](NC(=O)[C@H](CC(C)C)NC(=O)[C@H](CCCCN)NC(=O)[C@H](C)NC(=O)[C@H](C)N)C(C)C)C(=O)N[C@@H](CC(N)=O)C(=O)N[C@@H](C)C(=O)N[C@H](C(=O)N[C@@H](C)C(=O)N[C@@H](Cc1ccc(O)cc1)C(=O)N[C@@H](Cc1ccc(O)cc1)C(=O)N[C@@H](CCCNC(=N)N)C(=O)NCC(=O)N[C@@H](CC(C)C)C(=O)N[C@@H](CC(=O)O)C(=O)N[C@H](C(=O)N[C@@H](CO)C(=O)N[C@H](C(=O)N[C@H](C(=O)N1CCC[C@H]1C(=O)N[C@H](C(=O)N[C@@H](CO)C(=O)NCC(=O)N[C@@H](CC(=O)O)C(=O)N[C@H](C(=O)O)C(C)C)[C@@H](C)O)[C@@H](C)CC)C(C)C)C(C)C)C(C)C [24N 1404-1432]
DR1
  IC50: 50 nM
DP401
  IC50: 32700 nM
DP402
  IC50: 7040 nM

## CC[C@H](C)[C@H](NC(=O)[C@H](Cc1c[nH]cn1)NC(=O)[C@@H](NC(=O)[C@H](CC(C)C)NC(=O)CNC(=O)[C@@H](N)[C@@H](C)O)[C@@H](C)O)C(=O)N[C@@H](CC(=O)O)C(=O)N[C@@H](C)C(=O)N[C@@H](Cc1c[nH]cn1)C(=O)N[C@@H](Cc1ccccc1)C(=O)N[C@@H](CC(C)C)C(=O)N[C@@H](CO)C(=O)N[C@@H](CCC(N)=O)C(=O)N[C@H](C(=O)N[C@@H](CCCCN)C(=O)O)[C@@H](C)O [29N 1563-1577]
HLA-DRB4 (DRB4*0101); tracer E2/E168, read-out: IC50, binding to HLA-DRB4
  IC50: 40000 nM
HLA-DR1 (DRB1*0101); [3]
  IC50: 8 nM

## phytohemagglutinin [PHA]
[1]; [4]
  IFNγ: 2447 pg/mL
  IL2: 1337 pg/mL
  IL4: 632 pg/mL
  IL10: 665 pg/mL
[1]; [5]
  IFNγ: 2249 pg/mL
  IL2: 207 pg/mL
  IL4: 55 pg/mL
  IL10: 207 pg/mL
[1]; patient 093, assay at 24 h instead of 48 h
  IL2: 1402* pg/ml
[1]; [6]
  IFNγ: 8542 pg/mL
  IL4: 127 pg/mL
  IL10: 8551 pg/mL
[1]; patient 342, supernatant 48 h, —: not detected
  IL2: 125 pg/mL
[1]; [9]
  IFNγ: 474 pg/mL
  IL2: 18874 pg/mL
  IL4: 251 pg/mL
  IL10: 242 pg/mL
[1]; [7]
  IFNγ: — 187 pg/ml
  IL2: 153 — pg/ml
  IL4: 453 pg/mL
  IL10: 182 pg/mL
[1]; [8]
  IFNγ: 1979 pg/mL
  IL2: 1002 pg/mL
  IL4: 5638 pg/mL
  IL10: 497 pg/mL
[1]; [10]
  IFNγ: 9902 pg/mL
  IL2: 60 pg/mL
  IL4: 9 pg/mL

## tetanus toxin [TT]
[1]
  IL4: 24 pg/mL
